In article PMC11868579 (Nature Communications, 2024):
Where “and” joins values, the source holds several entries; their conditions need not be identical. Equal entries are not always repeated.

How the values were obtained:
[1] = target: eIF4E:eIF4G interaction (Homo sapiens, UniProt P06730); experiment: Electro-chemiluminescent binding assay, eIF4E:eIF4G, H1299 cell lysates; type: biochemical; set-up: endogenous in cells; host or cells: HeLa, SW620 or H1299 cells (lysates; intact H1299 cells in A13); conditions: for endogenous eIF4E:eIF4G interaction, electro-chemiluminescent signal, Average: n=3, 0 μM control in r69
Protocol: This assay uses plates with carbon electrodes and electro-chemiluminescent labels (SULFO-TAGs) that are conjugated to detection antibodies. When an electric current is applied to the plate electrodes the SULFO-TAG labels will emit light that is measured to quantify analytes in the sample. […] The plates were washed with 3 ×150 µl/well MSD wash buffer (cat#R61AA-1; 0.2% Tween-20 in PBS), then blocked with 150 µl/well block buffer (MSD, cat# R93AA) for 1 h. […] The incubated plates were washed 4x in 150 µl in MSD wash buffer and were re-blocked by the addition of 25 μl of blocking buffer containing a 1:500 dilution of the secondary antibody and incubated for 1 hr at RT with rotational shaking. […] Plates were then washed again 4x in 150 µl in MSD wash buffer and 25 μl of a 1:50 dilution of Goat anti-rabbit Sulfo-Tag (MSD, Cat# R32AB-1) in MSD blocking buffer was added and the plates incubated for 1 h at RT with rotational shaking. After a final wash step, 150 μl Read Buffer T4X (MSD, Cat# R92-TC2) was added and the plate read using the MSD QuickPlex SQ 120 plate reader.

[2] = target: T1, 4E-BP1 binding to eIF4E (Homo sapiens, UniProt P06730); experiment: Co-immunoprecipitation with eIF4E antibody, immunoblot for 4E-BP1, SW620 lysates; type: biochemical; conditions: 1–100 µM, 30 min
T1 construct: endogenous in cells; host or cells: SW620 cell lysates

[3] = tested on: cap-dependent and cap-independent (IRES) protein synthesis; experiment: Bicistronic protein synthesis reporter in H1299 cells; type: cell-based, human; conditions: 24 hr; for protein synthesis reporter signal (cap-dependent luciferase / IRES luciferase), replicate values: H1299, normalisation not stated
Protocol: H1299 cells were transfected with a biscistronic vector using Lipofectamine 3000 transfection reagent (Fisher Scientific, cat#L3000008) for 24 hr and then treated with compounds for further 24 h. Luminescence was measured after 24 h of compound treatment using the Dual Glo luciferase reporter assays as above.

[4] = target: T2, endogenous eIF4E:eIF4G interaction (Homo sapiens, UniProt P06730); experiment: Electro-chemiluminescent eIF4E:eIF4G assay after treatment of intact H1299 cells; type: cell-based; conditions: 100 µM; for disruption of eIF4E:eIF4G binding in intact cells: 16 hr; for endogenous eIF4E:eIF4G interaction in intact cells, electro-chemiluminescent signal, Average: H1299
T2 construct: endogenous in cells; host or cells: HeLa, SW620 or H1299 cells (lysates; intact H1299 cells in A13)

[5] = tested on: IRES-driven translation; experiment: HeLa in vitro translation assay, IRES-driven reporter; type: biochemical, human; conditions: for rLuc (IRES) luminescence normalized to DMSO control, Average: HeLa lysate IVT, n=3
Protocol: HeLa In vitro translation (IVT) assay kits were purchased from Thermo Fisher(cat#88882). Bicistronic reporter mRNA was prepared from using a CMV/T7-renilla luciferase-IRES(FDMV)-firefly luciferase reporter vector as template DNA (supplied by Oxford Genetics Ltd.) using Message Machine T7 Ultra transcription Kit (Thermo Fisher, cat# AM1345) to generate in vitro transcribed mRNA. DNA template was removed with Turbo DNase from the transcription kit and the mRNA purified using RNeasy columns (Qiagen, cat#74204). RNA concentration was adjusted to 1 µg/µl using a Nanodrop. In vitro translation assays were then set up using a HeLa IVT kit according to the manufacturer’s protocol. The reaction was analysed using Dual Glo luciferase reporter assays (Promega, cat#E2920). Compounds were diluted from 100x DMSO stocks 1:10 in PBS and 2.5 µl transferred to 96 well PCR plates (Starlab, cat#I1402-9700). 22.5 µl IVT reaction mix (1.5 mL HeLa lysate, 60 µl RNAsin (Promega, cat#N2115), 300 µl accessory proteins, 600 µl reaction buffer, 200 µl nuclease free water and 30 µl […] mRNA) was added and incubated for 30 min at 30 °C (PCR alphacycler 4, PCRmax, Stone, Staffordshire, UK). The samples were placed on ice for 10 min, then 10 µl was removed and transferred to a white 96 well assay plate (Corning, cat#3917). […]

T2 sequence (P06730 2-217 limits assumed): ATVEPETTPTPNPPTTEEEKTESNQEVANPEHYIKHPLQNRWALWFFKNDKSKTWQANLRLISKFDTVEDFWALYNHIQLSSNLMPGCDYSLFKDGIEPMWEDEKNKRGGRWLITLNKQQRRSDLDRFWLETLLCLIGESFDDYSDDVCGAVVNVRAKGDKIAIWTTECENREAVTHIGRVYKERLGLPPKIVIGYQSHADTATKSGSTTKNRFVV
eIF4E:eIF4G interaction, sequence (P06730 2-217 limits assumed): as above
T1 sequence (P06730 2-217 limits assumed): as above

Row | SMILES | endogenous eIF4E:eIF4G interaction, electro-chemiluminescent signal, Average ([1]; 0.1 μM) | endogenous eIF4E:eIF4G interaction, electro-chemiluminescent signal, Average ([1]; 1 μM) | endogenous eIF4E:eIF4G interaction, electro-chemiluminescent signal, Average ([1]; 10 μM) | endogenous eIF4E:eIF4G interaction, electro-chemiluminescent signal, Average ([1]; 100 μM) | EC50 ([1]; read-out: EC50, eIF4G:eIF4E binding) | effect on 4E-BP1 binding to eIF4E (co-immunoprecipitation) [2] | protein synthesis reporter signal (cap-dependent luciferase / IRES luciferase), replicate values ([3]; 10 μM) | protein synthesis reporter signal (cap-dependent luciferase / IRES luciferase), replicate values ([3]; 25 μM) | inhibitory activity in dual reporter assay ([3]; H1299 cells) | disruption of eIF4E:eIF4G binding in intact cells [4] | endogenous eIF4E:eIF4G interaction in intact cells, electro-chemiluminescent signal, Average ([4]; 6hr, control 1641896.8) | endogenous eIF4E:eIF4G interaction in intact cells, electro-chemiluminescent signal, Average ([4]; 16hr, control 1700881.1) | EC50 ([5]; HeLa in vitro translation, 30 min, read-out: effect on IRES-driven translation) | rLuc (IRES) luminescence normalized to DMSO control, Average ([5]; 1 μM) | rLuc (IRES) luminescence normalized to DMSO control, Average ([5]; 10 μM) | rLuc (IRES) luminescence normalized to DMSO control, Average ([5]; 100 μM) | inhibition of eIF4G:eIF4E binding ([1]; 100 µM) | effect on cap-independent IRES-driven translation ([5]; 1, 10, 100 µM)
1 | CC[C@H](O[C@H](C)CO)c1ccc(-c2ccccc2F)cc1NCCO [Compound 4] | 820654.4 | 641951.8 | 429514.6 | 347571.1 | ~1500 nM | did not disrupt 4E-BP1 binding to eIF4E | 0.798 and 0.925 and 1.853 and 1.040 and 0.865 and 0.241 | 1.174 and 0.369 and 0.133 and 0.780 and 0.760 and 1.031 | lacked inhibitory activity | significantly disrupt eIF4E:eIF4G binding | 1444726.0 | 549014.1 | > 100 µM | 97.0% | 85.6% | 88.7% |  | 
2 | CC[C@@H](O[C@H](C)CO)c1ccc(-c2ccccc2F)cc1NCCO [Compound 5] | 815674.7 | 773437.1 | 757778.5 | 644050.9 |  | limited effect | 0.991 and 1.031 and 2.154 and 1.191 and 1.096 and 0.294 | 1.003 and 1.037 and 1.187 and 0.927 and 1.046 and 2.532 |  | some limited evidence of activity | 1584729.4 | 1071107.1 |  | 100.6% | 89.2% | 98.4% | ~ 10% | no significant effect
